This is an account of results in US4551479A, “Compounds with anti-convulsive properties” (Akzo N.V., priority 1983, dated 1985).

The subject of one data set is tonic convulsion. Nature of the data set: Electroshock test (anti-convulsive properties). Type of data set: in vivo. The conditions noted are these: ip, read-out: Anti-convulsive properties, Electroshock test ED200 i.p. An excerpt:
^(1) The ED200 is the dose of the test compound (in mg/kg) which
necessitates a 100% increase of the current intensity to bring about a
tonic convulsion in 50% of the test animals.

Data set [1] concerns Pentylenetetrazole (PTZ) cramp condition. Nature of the data set: PTZ (pentylenetetrazole) test (anti-convulsive properties). Format: in vivo. The conditions noted are these: ip, read-out: Anti-convulsive properties, PTZ test ED50 i.p. An excerpt: ^(2) Pentylenetetrazole (i.e. PTZ) directly activates the nerve
endings, leading to a cramp condition.

Data set [2] is described as follows: Rotarod (neurotoxicity and sedation). Conditions: ip.
A short description of data set [3]: Shuttle box (neurotoxicity and sedation). Conditions: ip.
A further data set concerns benzodiazepine receptors. Nature of the data set: Antagonism of anti-convulsive effect by benzodiazepine antagonist Ro 15-1788. Conditions: administration of Ro 15-1788. Format: in vivo.

Counter-ions that a name gives are not always drawn. Like-named read-outs stand apart in the source and are kept apart here.

Turning to `CN(C)C1C2C=CCC1c1ccccc1C2` (stereo not drawn), the ED200 in the data set with tonic convulsion amounted to 11 mg/kg. In addition, the ED50 in data set [1] was 10 mg/kg. For the same compound, the TD50 in data set [2] is 70 mg/kg; in data set [3], over 46 mg/kg.
As for `CN1C(=O)CN=C(c2ccccc2)c2cc(Cl)ccc21` [diazepam], the ED200 in the data set on tonic convulsion amounted to 14 mg/kg. Further, in data set [1], the ED50 is 0.5 mg/kg. Besides, the “Effect of benzodiazepine antagonist (Ro 15-1788) on the anti-convulsive effect” value with benzodiazepine receptors is on record as “completely counteracted”.
As for `O=C1NC(=O)C(c2ccccc2)(c2ccccc2)N1` [diphenyl hydantoin], the ED200 in the data set with tonic convulsion (dose necessitating a 100% increase of current intensity to bring about tonic convulsion in 50% of test animals) stood at 15 mg/kg. Also, the ED50 in data set [1] (pentylenetetrazole) is 22 mg/kg. Further, the TD50 in data set [2] and in data set [3] was 100 mg/kg each time.
On to `CCCC(CCC)C(=O)O` [sodium salt of valproic acid], for which, in the data set on tonic convulsion, the ED200 was 180 mg/kg. The ED50 in data set [1] came out at 30 mg/kg. In addition, the TD50 in data set [2] was found to be 230 mg/kg; in data set [3], 350 mg/kg.
